{"source": "patent US10351559B2", "about": "“Maleate salts of a B-RAF kinase inhibitor, crystalline forms, methods of preparation, and uses therefore” (BeiGene, Ltd., priority 2015, dated 2019)", "key": {"[1]": {"tested_on": "EGFR phosphorylation in HCC827 cells", "experiment": "cellular phospho-EGFR TR-FRET assay", "format": "cell-based", "conditions": "Homo sapiens; EGFR mutant HCC827 lung cancer cells, 1 h treatment", "protocol": "(§1) A375, Sk-Mel-28, HT29, Colo205, A431, and HCC827 cell lines were purchased from American Type Culture Collection. All the cell lines used in the cellular assays were cultured in the designated medium supplemented with 10% fetal bovine serum (FBS, Thermo Scientific), 100 units/mL penicillin (Gibco), 0.1 mg/mL streptomycin (Gibco) and in a humidified 37° C. environment with 5% CO2. Cell lines were reinstated from frozen stocks laid down within three passages from the original cells purchased and passaged no more than 30 times.\n(§2) Cellular phospho-ERK and phospho-EGFR were measured using a TR-FRET-based method. Cells were seeded at 3×10^4 per well of a 96-well plate and left to attach for 16 hours. Growth medium was then replaced with 100 μL of medium containing no serum. Cells were then treated with a 10-point titration of compound. After 1 h of compound treatment, 50 μL of lysis buffer (Cisbio) were added to each well. Plates were then incubated at room temperature with shaking for 30 min. A total of 16 μL of cell lysate from each well of a 96-well plate was transferred to a 384-well small volume white plate. […] FRET signals were measured using a PHERAstar FS reader (BMG Labtech). IC50 values for ERK or EGFR phosphorylation was determined using GraphPad Prism software."}, "[2]": {"tested_on": "EGFR phosphorylation in A431 cells", "experiment": "cellular phospho-EGFR TR-FRET assay", "format": "cell-based", "conditions": "Homo sapiens, A-431; EGFR overexpressing A431 cells, 1 h treatment", "protocol": "as §1, §2"}, "drug metabolism enzymes": {"tested_on": "drug metabolism enzymes", "experiment": "inhibition of drug metabolism enzymes", "format": "in vitro ADME", "conditions": "except CYP2C8 and CYP2C19"}, "[3]": {"tested_on": "human Calu-6 lung adenocarcinoma (K-RAS mutation) tumors", "experiment": "xenograft efficacy study, combination", "format": "in vivo, BALB/C nude mice", "conditions": "Calu-6 tumors", "protocol": "Human cancer cells were inoculated subcutaneously in the right axilla region of BALB/C nude mice to generate tumor xenografts. On the day of implantation, the cell culture medium was replaced with fresh medium. Three hours later, the media was removed and the cells were collected and re-suspended in cold (4° C.) PBS prior to inoculation. The right axilla region of each mouse was cleaned with 70% ethanol prior to cell inoculation. Each animal was injected subcutaneously with desired cells in 200 μl of cell suspension in the right front flank via a 26-gauge needle. After implantation tumor volumes were measured twice weekly in two dimensions using a calliper. Tumor volume was calculated using the formula: V=0.5×(a×b^2) where a and b are the long and short diameters of the tumor, respectively.\nFor in vivo efficacy studies, when the average tumor size reaches 100˜200 mm^3, animals were assigned into desired number of groups with 6-10 mice per group using a stratified randomization procedure. […] Body weight was assessed immediately before dosing and the volume dosed was adjusted accordingly. Individual body weights and tumor volumes were determined twice weekly, with mice being monitored daily for clinical signs of toxicity for the duration of the study. […] All group data was analyzed using the t test. […]\nTumor growth inhibition (TGI) was calculated using the following formula: […]"}}, "note": "Where a name gives a salt, the structure may show the parent alone.", "data": [{"compound": "O=C1CCc2c(Oc3ccc4c(c3)[C@@H]3[C@H](O4)[C@H]3c3nc4ccc(C(F)(F)F)cc4[nH]3)ccnc2N1", "note": "[5-(((1R,1aS,6bR)-1-(6-(trifluoromethyl)-1H-benzo[d]imidazol-2-yl)-1a,6b-dihydro-1H-cyclopropa[b]benzofuran-5-yl)oxy)-3,4-dihydro-1,8-naphthyridin-2(1H)-one sesqui-maleate salt]", "values": [{"measurement": "IC50", "setting": "[1]", "result": 161, "unit": "nM"}, {"measurement": "IC50", "setting": "[2]", "result": 385, "unit": "nM"}, {"measurement": "inhibitory activity on drug metabolism enzymes", "setting": "drug metabolism enzymes", "result": "no inhibitory activity"}, {"measurement": "antitumor activity in combination", "setting": "[3]; combined with docetaxel", "result": "remarkable antitumor activity"}, {"measurement": "antitumor activity in combination", "setting": "[3]; combined with the MEK inhibitor selumetinib (AZD6244)", "result": "remarkable antitumor activity"}]}]}
